pIC50: −log10 of the molar value.

The first test concerns the target Bromodomain-containing protein 4 (Homo sapiens, UniProt O60885). As to the kind of experiment: In Vitro Enzyme Inhibition Assay-BRD4 Inhibition: Inhibition of BRD4 was determined as described previously. See, e.g., U.S. Pat. No. 9,034,900.
As to `Cn1cc(-c2cnn(CC3CC3)c2)c(-c2ccc(C(=O)O)cc2)cc1=O`, the pIC50 – broadly, the negative decadic logarithm of the IC50, by convention in mol/L – is below 5.30.

A further test deals with CREB-binding protein (Homo sapiens, UniProt Q92793). As to the kind of experiment: In Vitro CBP Inhibition: The CBP-inhibitory activity of the compounds described herein was determined by calculating the IC50. More specifically, CBP inhibitor activity was assayed as follows: CBP was cloned and expressed in E. coli as His-tag protein and purified by Nickel affinity and gel-filtration chromatography. […] CBP binding and inhibition is assessed by monitoring the interaction of biotinylated H4-tetraacetyl peptide (AnaSpec, H4K5/8/12/16(Ac), biotin-labeled) with the target using the AlphaScreen technology (Perkin Elmer). In a 384-well ProxiPlate CBP (50 nM final) was combined with peptide (20 nM final) in 50 mM HEPES (pH 7.3), 10 mM NaCl, 0.25 mM TCEP, 0.1% (w/v) BSA, and 0.005% (w/v) Brij-35 either in the presence of DMSO (final 0.4% DMSO) or compound dilution series in DMSO. After 20 min incubation at room temp, Alpha-streptavidin donor beads and Nickel Chelate acceptor beads were added to a final concentration of 5 μg/mL.
CREB-binding protein, sequence (Q92793 whole entry): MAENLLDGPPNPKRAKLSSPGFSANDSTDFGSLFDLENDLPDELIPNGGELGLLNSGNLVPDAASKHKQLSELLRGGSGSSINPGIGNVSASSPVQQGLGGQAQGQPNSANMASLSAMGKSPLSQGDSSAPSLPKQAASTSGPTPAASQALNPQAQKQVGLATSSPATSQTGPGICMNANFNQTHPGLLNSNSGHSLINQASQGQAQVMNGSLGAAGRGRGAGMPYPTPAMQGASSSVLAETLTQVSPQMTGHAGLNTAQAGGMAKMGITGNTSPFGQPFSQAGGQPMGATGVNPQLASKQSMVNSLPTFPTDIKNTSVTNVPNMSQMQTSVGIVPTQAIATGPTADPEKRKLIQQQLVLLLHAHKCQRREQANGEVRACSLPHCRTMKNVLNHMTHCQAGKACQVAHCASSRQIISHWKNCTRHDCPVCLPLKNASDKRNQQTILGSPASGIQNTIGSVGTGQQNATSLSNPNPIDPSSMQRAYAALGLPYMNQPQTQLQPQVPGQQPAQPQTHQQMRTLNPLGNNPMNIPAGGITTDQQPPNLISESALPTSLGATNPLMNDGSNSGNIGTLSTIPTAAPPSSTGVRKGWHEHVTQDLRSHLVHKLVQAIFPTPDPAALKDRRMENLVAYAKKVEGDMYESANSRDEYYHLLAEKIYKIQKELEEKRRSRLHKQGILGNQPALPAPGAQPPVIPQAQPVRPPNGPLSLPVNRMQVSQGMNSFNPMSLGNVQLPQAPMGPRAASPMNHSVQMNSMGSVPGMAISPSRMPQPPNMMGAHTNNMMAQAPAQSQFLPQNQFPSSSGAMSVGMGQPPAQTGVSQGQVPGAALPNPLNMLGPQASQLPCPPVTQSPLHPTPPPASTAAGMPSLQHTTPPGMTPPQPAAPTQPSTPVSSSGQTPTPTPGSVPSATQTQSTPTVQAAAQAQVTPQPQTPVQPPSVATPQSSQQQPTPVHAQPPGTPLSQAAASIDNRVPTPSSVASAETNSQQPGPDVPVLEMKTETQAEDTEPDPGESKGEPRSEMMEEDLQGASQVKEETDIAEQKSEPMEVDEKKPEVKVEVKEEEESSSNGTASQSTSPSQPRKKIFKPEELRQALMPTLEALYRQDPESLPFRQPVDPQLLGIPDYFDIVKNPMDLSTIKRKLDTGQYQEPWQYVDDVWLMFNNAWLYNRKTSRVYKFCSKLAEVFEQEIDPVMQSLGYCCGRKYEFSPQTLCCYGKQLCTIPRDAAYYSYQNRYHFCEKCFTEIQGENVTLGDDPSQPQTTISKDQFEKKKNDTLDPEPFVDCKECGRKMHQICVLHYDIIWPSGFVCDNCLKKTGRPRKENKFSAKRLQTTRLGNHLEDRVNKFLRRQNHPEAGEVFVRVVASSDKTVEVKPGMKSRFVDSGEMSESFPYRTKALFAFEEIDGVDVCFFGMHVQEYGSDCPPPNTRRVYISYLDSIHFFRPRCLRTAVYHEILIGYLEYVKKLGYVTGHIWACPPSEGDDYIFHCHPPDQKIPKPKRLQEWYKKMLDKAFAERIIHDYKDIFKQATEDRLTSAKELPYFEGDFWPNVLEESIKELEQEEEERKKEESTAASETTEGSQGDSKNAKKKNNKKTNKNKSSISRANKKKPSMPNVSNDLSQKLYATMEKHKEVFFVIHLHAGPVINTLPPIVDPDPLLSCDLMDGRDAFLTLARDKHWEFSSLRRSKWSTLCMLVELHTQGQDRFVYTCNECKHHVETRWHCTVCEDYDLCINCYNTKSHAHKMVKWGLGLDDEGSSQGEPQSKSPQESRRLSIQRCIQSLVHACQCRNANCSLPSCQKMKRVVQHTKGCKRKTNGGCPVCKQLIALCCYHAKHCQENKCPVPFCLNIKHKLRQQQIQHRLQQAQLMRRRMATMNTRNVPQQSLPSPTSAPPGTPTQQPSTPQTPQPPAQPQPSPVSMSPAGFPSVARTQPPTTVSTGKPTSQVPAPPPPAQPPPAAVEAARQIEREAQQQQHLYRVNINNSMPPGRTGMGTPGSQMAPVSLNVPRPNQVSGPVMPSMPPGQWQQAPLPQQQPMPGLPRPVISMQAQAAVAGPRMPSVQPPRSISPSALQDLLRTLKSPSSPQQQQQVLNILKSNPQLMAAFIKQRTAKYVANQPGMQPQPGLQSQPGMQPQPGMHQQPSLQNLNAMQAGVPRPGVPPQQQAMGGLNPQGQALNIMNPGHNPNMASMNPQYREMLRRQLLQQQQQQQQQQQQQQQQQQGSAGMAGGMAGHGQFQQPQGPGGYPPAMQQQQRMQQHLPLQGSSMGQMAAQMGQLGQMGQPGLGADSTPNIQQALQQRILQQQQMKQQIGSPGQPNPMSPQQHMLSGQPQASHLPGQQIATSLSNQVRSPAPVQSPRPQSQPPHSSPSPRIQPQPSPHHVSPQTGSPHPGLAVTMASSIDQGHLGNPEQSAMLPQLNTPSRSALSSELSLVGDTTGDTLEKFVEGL
`CCOc1cc(=O)n(C)cc1-c1cnn(C(C)c2cccc(-c3cnn(C)c3)c2)c1` (configuration not stated): the pIC50 was above 6.30. Same read-out and setting: in the case of `Cn1ccc(-c2cc(=O)n(C)cc2-c2cnn(-c3cccc(F)c3C#N)c2)cc1=O` it was above 6.30. Still for that read-out and setting: in the case of `Cn1cc(-c2cnn(-c3ccccc3-c3nnn[nH]3)c2)c(-c2ccc(F)cc2)cc1=O` it was above 6.30; in that of `Cn1cc(-c2cnn(Cc3ccccc3)c2)c(-c2cccc(Cl)c2)cc1=O`, above 6.30; in that of `COc1ccc(-c2cc(=O)n(C)cc2-c2cnn(-c3ccccc3C#N)c2)cc1`, above 6.30.

As for `COc1cc(-c2cc(=O)n(C)cc2-c2cnn(-c3ccccc3C(=O)NC#N)c2)ccn1`, the pIC50 was above 6.30.

Regarding `COc1ccc(C(=O)O)c(-n2cc(-c3cn(C)c(=O)cc3-c3ccc(Cl)cc3)cn2)c1`, the negative logarithm of the IC50 (pIC50) was above 6.30. Consider `Cn1cc(-c2cnn(CC3CC3)c2)c(-c2ccc(C(=O)O)cc2)cc1=O`, for which the pIC50 was above 6.30. The same measure, in the same setting: in the case of `COc1ccc(-c2cc(=O)n(C)cc2-c2cnn(-c3ccccc3C(=O)NC#N)c2)cn1` it was above 6.30. The same measure, in the same setting: to `Cc1cc(-c2cnn(C(c3ccccc3)C3CC3)c2)cn(C)c1=O` (configuration not stated) belongs above 6.30. As for `Cn1cc(-c2cnn(Cc3ccccc3)c2)c(-c2cnn(CC(=O)O)c2)cc1=O`, the negative logarithm of the IC50 (pIC50) is above 6.30. Still for that read-out and setting: to `Cn1cc(-c2cnn(CC3CC3)c2)c(-c2ccc(C(F)(F)F)cc2)cc1=O` belongs above 6.30.

For the compound `Cn1cc(-c2cnn(-c3ccccc3C(=O)O)c2)c(-c2ccc(Cl)cc2)cc1=O`, the pIC50 was above 6.30. Same read-out and setting: to `Cn1cc(-c2cnn(CC3CCCCC3)c2)c(-c2ccccc2)cc1=O` belongs above 6.30. Still for that read-out and setting: to `COc1ccc(C#N)c(-n2cc(-c3cn(C)c(=O)cc3-c3ccc(Cl)cc3)cn2)c1` belongs above 6.30. On the same count and under the same terms, in the case of `CNC(=O)Cn1cc(-c2cn(C)c(=O)cc2-c2ccccc2)cn1` it was above 6.30; in that of `CNC(=O)c1ccc(-c2cc(=O)n(C)cc2-c2cnn(CC3CC3)c2)cc1`, above 6.30; in that of `COc1ccc(-c2cc(=O)n(C)cc2-c2cnn(-c3ccccc3C(=O)O)c2)cc1`, above 6.30. As to `Cn1cc(-c2cnn(Cc3ccccc3)c2)c(-c2ccc(Cl)cc2)cc1=O`, the pIC50 was above 6.30. Same read-out and setting: in the case of `COc1ccccc1-c1cc(=O)n(C)cc1-c1cnn(Cc2ccccc2)c1` it was below 5.30; in that of `Cn1cc(COc2cc(=O)n(C)cc2-c2cnn(-c3ccccc3Cl)c2)cn1`, above 6.30.

(Values after ChEMBL document CHEMBL5727633, “Therapeutic compounds” (2020).)
